From patent US20200032249A1, “LABELING, ISOLATION, & ANALYSIS OF RNA FROM RARE CELL POPULATIONS” (priority 2017, published 2020)

Tests used:
293T cells = experiment: anti-BrdU immunofluorescent staining of 293T cells treated with 5-FC or 5-FU; assay type: cell-based, human; details: 250 μM, 24 h
Description: S. cerevisiae CD was exogenously expressed in human embryonic kidney 293T cells, and the cells were treated with 250 μM fluorocytosine (5-FC). This system is predicted to generate intracellular fluorouracil (5-FU), which is then incorporated into newly synthesized RNAs (FIG. 1a, b). Antibodies against bromodeoxyuridine (BrdU) can recognize BrdU and other halogenated uridines incorporated into nucleic acids (8).
Human embryonic kidney transformed with […] (293T) and human breast cancer MDA-MB-231 (MDA231) cells were cultured in DMEM High Glucose medium (Wheaton) supplemented with 10% Fetal Bovine Serum (Clontech, Catalog number 631106) supplemented with 2 mM L-Glutamine. All cell lines have been routinely tested for mycoplasma contamination. For the induction of CD or CD and UPRT, cells were treated with 1 μg/ml doxycycline for 24 h. For Fluorouracil tagging, cells were treated with 250 μM of 5-FC or 5-FU unless indicated. Where indicated, 125 μM thymine was added together with 5-FC. For the formation of stress granules, cells were treated with 500 μM Sodium Arsenite (Santa Cruz Biotechnologies, Catalog number SC-301816).
Cells were fixed with 4% paraformaldehyde for 10 min, permeabilized with 0.2% TritonX-100 for 10 min, blocked with 5% BSA for one hour at room temperature, prior to incubation with primary antibodies at 4° C. overnight, and secondary antibodies (Thermo Fisher anti-chicken antibody, Catalog number A-11039, Thermo Fisher anti-rat antibody, Catalog number A-11006, Abcam anti-rat antibody, Catalog number ab150117) incubated for 1 h at room temperature. Mouse lungs were fixed in 4% paraformaldehyde overnight at 4° C., embedded in paraffin and sectioned. The lung sections were deparaffinized and stained with hematolxylin/eosin or immunostained using standard protocols. Automated image analysis was performed using the FIJI software package.

MDA-MB-231 cells = experiment: co-culture of CD-expressing MDA231 cells with unlabeled control cells, anti-BrdU immunostaining; assay type: cell-based, human; details: CD only, without UPRT and thymine
Description: FIG. 1a-f. Labeling and purification of RNA by CD expression and 5-FC treatment. FIG. 1a—Schematic diagram showing RNA labeling using CD and 5-FC. FIG. 1b—Chemical reactions steps involved in the labeling of RNA using CD and 5-FC. The dotted arrow indicates the intermediary steps that are not shown. FIG. 1c Relative fold enrichment of mRNA isolated by Flura-tagging. 293T cells expressing CD or unlabeled controls were treated with 5-FC for the indicated times, labeled mRNAs were immunopurified using anti-BrdU antibody, and the levels of labeled mRNAs of the indicated genes relative to corresponding non-immunoprecipitated inputs normalized to immunopurified mRNAs from cells not expressing CD were quantified by RT-PCR. […] FIG. 1d—Schematic diagram of the constructs used for inducible expression of UPRT and/or CD, and the experimental design. Transduced RFP+MDA231 cells were mixed with unlabeled cells, treated with doxycycline for 24 h and then 5-FC for 4-12 h. Cells were analyzed by immunofluorescence or harvested for RNA analysis. FIG. 1e—Flura-tagging in MDA231 cells in vitro. […] The fold enrichment of the indicated representative human genes over mouse housekeeping genes (mHPRT1 and mLDH1) was measured by RT-PCR (n=3±S.E.). […]
Next, we determined whether 5-FU-labeled mRNAs can be specifically and efficiently isolated by immunoprecipitation. […]

Compound: Nc1nc(=O)[nH]cc1F [5-FC, 5-fluorocytosine]
- immunostaining with anti-BrdU antibody (293T cells; 293T cells expressing CD): stained by the antibody
- immunostaining with anti-BrdU antibody (293T cells; untransfected control 293T cells): did not
- 5-FU-labeling of neighboring cells not expressing CD (MDA-MB-231 cells): led to 5-FU-labeling of cells that did not express CD as well
